# Reference: US20110217290A1, “TREATMENT AND/OR PREVENTION OF PEANUT INDUCED ANAPHYLAXIS” (priority 2009, published 2011)
# What was measured:
# [1] = test system: cysteinyl leukotrienes (CysLTC); experiment: Plasma cysteinyl leukotrienes after peanut challenge (enzyme immunoassay); format: in vivo, C57BL/6 mice
# Protocol: Blood from control and sensitized mice was collected in K2-EDTA containing tubes at the indicated time points following i.p challenge with CPE and plasma was analyzed for (E) histamine and (F) CysLTC levels. Histamine and leukotriene levels were determined in plasma at different time points following challenge using enzyme immunoassay kits (Beckman Coulter Canada, Inc, Mississauga, and Cedarlane Laboratories Ltd, Hornby, Canada, respectively) according to the manufacture's specifications. Plasma was obtained using K2-EDTA containing tubes (BD Biosciences, Mississauga, ON, Canada). Graphs show mean values±SEM from three to five independent experiments; n=8-12 mice per group. * P<0.05 relative to control. The kinetics of mediator production is distinct. […] These findings indicate that oral sensitization with peanut results in a significant increase in the number of peritoneal mast cells and FcεRI surface expression likely contributing to the massive release of vasoactive mediators following challenge with peanut.
# (for H1 receptor and H2 receptor, respectively) i.v. 30 minutes prior to CPE challenge. […] Histamine (C) and (G) and leukotriene (D) and (H) levels from each of the experimental groups above were analyzed in plasma 40 min following CPE challenge. […]
# [2] = test system: albumin in the PL fluid; experiment: Vascular leakage: albumin content in PL fluid after peanut challenge; format: in vivo, C57BL/6 mice; settings: PAF-R antagonist; following peanut challenge
# Source text: During the course of a systemic anaphylactic reaction vasodilatation and hypotension are often associated with excessive vascular permeability and fluid extravasations.
# [3] = test system: peanut-sensitized mice
# [4] = test system: peanut-sensitized mice; experiment: Mathematical model grading severity of the anaphylactic response (AU39° C., AU35° C., events under 35° C.); format: in vivo, C57BL/6 mice
# Protocol: In an effort to more comprehensively grade the anaphylactic response, three measures of severitywere utilized: global, moderate and life-threatening severity. To facilitate the assessment of severity, a mathematical model that describes the overall behavior of the anaphylactic response for each experimental group was developed. Using mean experimental data for untreated mice, an equation was derived that represents the pattern in core temperature up to 120 minutes following challenge. The same equation was then fit to the other experimental group (mice treated with PAF-R antagonist) to derive a numerical coefficient that accurately depicts the respective response. (FIG. 3 E). These equations were subsequently used to generate modeled data. Actual and modeled data were validated through linear regression, yielding R^2 values of greater than 0.99 for both untreated and treated groups (FIG. 3 F). Thus, the response for each experimental group can be expressed with a mathematical representation that can be used to assess the overall degree of the anaphylactic response. Global severity was defined as the area of the response under 39° C. (AU39° C.), while life-threatening severity was depicted as the area of the response under 35° C. (AU35° C.; FIG. 3 F). Moderate severity was deemed as the difference between global and life-threatening severity (AU39° C.-AU35° C.; FIG. 3 F). Given that these areas (i.e. AU39° C. and AU35° C.) were calculated using mean temperatures at each time point, they describe the overall trend of the response. […] In other words, the AU35° C. is not representative of those mice that experienced life-threatening anaphylaxis exclusively but rather encompasses the response of the entire population. Therefore, the concept of life-threatening severity was modified to consider only the number of mice whose temperature fell below 35° C. at any time point (expressed as ‘events under 35° C.’). In addition, the duration of life-threatening conditions was determined by calculating the time at which each response was below 35° C. (FIG. 3 F).
# The potential adjuvant effect of antihistamines in the treatment of PIA was assessed. Peanut-sensitized mice were treated with a PAF-R antagonist along with H1 and H2 receptor antagonists and monitored them for 120 min following challenge. FIG. 4 illustrates that concomitant treatment with PAF-R antagonist and anti-histamines prevents life-threatening and prolonged peanut-induced anaphylactic reactions. […] One week after the last sensitization, separate groups of mice were treated as follows: (A) appropriate drug vehicle (B) PAF-R antagonist [50 mg/Kg], ABT-491] orally 1 h prior to CPE challenge. (C) histamine receptor antagonists mepyramine [3 mg/kg] and cimetadine [10 mg/Kg] (for H1 receptor and H2 receptor, respectively) i.v. 30 min prior to CPE challenge (D) The last group of mice was administered the treatments described in B and C concurrently. Pooled data from two independent experiments are shown (n=6/experiment). *, P<0.05 relative to time 0. ns, not significant. […] (E) The accuracy of the model was quantified using linear regression. Using the equation from the model, global severity was defined as the area between the response and 39 (area under 39° C. (AU39° C.)) while life-threatening severity was defined as the area of the response under 35° C. (AU35° C.). Since these areas were calculated using mean temperatures at each time point, they describe the overall trend of the response. […]
Compound,"levels of Cysts in plasma following challenge with peanut ([1]; PAF-R antagonist treated, untreated 570.2±237.3, mean±SEM) [pg/mL]",decrease in the content of albumin in the PL fluid of treated mice compared to untreated mice (vascular leakage) [2] [%],"development of seizures (convulsions) ([3]; ABT-491 50 mg/Kg orally 1 h prior to challenge, 15% of untreated mice developed convulsions)","recovery from the anaphylactic reaction ([3]; ABT-491 50 mg/Kg orally 1 h prior to challenge, monitored 120 min, FIGS. 3 C and D)","treated mice that developed either no or mild anaphylactic reactions ([3]; ABT-491 50 mg/Kg orally 1 h prior to challenge, no: score 0, 37.5-40° C., mild: score ≦2, 34.5-37.5° C.) [%]","mice that reached recovery temperature (37° C.) within 120 min following challenge ([3]; ABT-491 50 mg/Kg orally 1 h prior to challenge, untreated 43%, FIG. 3 C) [%]","mice that dropped their core temperature by more than 4° C. ([3]; ABT-491 50 mg/Kg orally 1 h prior to challenge, untreated 87%) [%]","mice that died within 48 h following challenge ([3]; ABT-491 50 mg/Kg orally 1 h prior to challenge, untreated approximately 20%)","mice that experienced severe hypothermia 120 min following challenge ([3]; ABT-491 50 mg/Kg orally 1 h prior to challenge, untreated approximately 30%) [%]","decrease in global severity (AU39° C.) ([4]; PAF-R antagonist 50 mg/Kg orally vs. untreated, up to 120 min following challenge, FIG. 3 F)","less time under life-threatening conditions (below 35° C.) compared to untreated mice ([4]; PAF-R antagonist 50 mg/Kg orally, FIG. 3 F)","number of 'events under 35° C.' ([4]; PAF-R antagonist 50 mg/Kg orally, untreated 133, FIG. 3 F)","number of 'events under 35° C.' ([4]; treatments as, 120 min, untreated 75, FIG. 4 E)","effect on moderate severity (AU39° C.-AU35° C.) ([4]; treatments as, up to 120 min, FIG. 4 E)","leukotrienes in plasma from treated mice ([1]; Zileuton 50 mg/Kg oral, 12 h and 1 h prior to challenge, plasma 40 min following CPE challenge, FIG. 2 D)","impact on the extent and/or kinetics of peanut-induced anaphylactic reactions ([3]; Zileuton 50 mg/Kg oral gavage twice, 12 h and 1 h prior to i.p. CPE challenge, 40 min, FIGS. 2 A and B)"
C#Cc1cccc2c1c(C(=O)c1ccc(Cn3c(C)nc4cnccc43)c(F)c1)cn2C(=O)N(C)C [ABT-491],187.3 ± 96.9,57,no seizures were observed,significantly accelerated,~50,83,48,none,9,approximately 50%,approximately 75%,41,16,partial effect,–,–
CC(c1cc2ccccc2s1)N(O)C(N)=O (stereo not shown) [Zileuton],–,–,–,–,–,–,–,–,–,–,–,–,–,–,nearly undetected,did not have an impact
